In patent publication EP0787717A1, “Substituted diaryl dicarboxylic acid diguanidines, process for their preparation, their use as inhibitors of the Na+/H+ exchange as well as medicament or diagnostic agent containing them” (HOECHST AKTIENGESELLSCHAFT, priority 1996, dated 1997) one finds IC50 data, which are given here for five molecules.

The target in this test is T1, Na ^+/H ^+-Exchangers von Kaninchenerythrocyten (Oryctolagus cuniculus, UniProt P23791).
T1 construct: den Na ^+-Influx in die Erythrocyten via Na ^+/H ^+-Austausch flammenphotometrisch bestimmen zu können; from tissue; host or cells: Erythrocytes in whole blood from the ear arteries of cholesterol-fed New Zealand White rabbits
T1 sequence (P23791 whole entry): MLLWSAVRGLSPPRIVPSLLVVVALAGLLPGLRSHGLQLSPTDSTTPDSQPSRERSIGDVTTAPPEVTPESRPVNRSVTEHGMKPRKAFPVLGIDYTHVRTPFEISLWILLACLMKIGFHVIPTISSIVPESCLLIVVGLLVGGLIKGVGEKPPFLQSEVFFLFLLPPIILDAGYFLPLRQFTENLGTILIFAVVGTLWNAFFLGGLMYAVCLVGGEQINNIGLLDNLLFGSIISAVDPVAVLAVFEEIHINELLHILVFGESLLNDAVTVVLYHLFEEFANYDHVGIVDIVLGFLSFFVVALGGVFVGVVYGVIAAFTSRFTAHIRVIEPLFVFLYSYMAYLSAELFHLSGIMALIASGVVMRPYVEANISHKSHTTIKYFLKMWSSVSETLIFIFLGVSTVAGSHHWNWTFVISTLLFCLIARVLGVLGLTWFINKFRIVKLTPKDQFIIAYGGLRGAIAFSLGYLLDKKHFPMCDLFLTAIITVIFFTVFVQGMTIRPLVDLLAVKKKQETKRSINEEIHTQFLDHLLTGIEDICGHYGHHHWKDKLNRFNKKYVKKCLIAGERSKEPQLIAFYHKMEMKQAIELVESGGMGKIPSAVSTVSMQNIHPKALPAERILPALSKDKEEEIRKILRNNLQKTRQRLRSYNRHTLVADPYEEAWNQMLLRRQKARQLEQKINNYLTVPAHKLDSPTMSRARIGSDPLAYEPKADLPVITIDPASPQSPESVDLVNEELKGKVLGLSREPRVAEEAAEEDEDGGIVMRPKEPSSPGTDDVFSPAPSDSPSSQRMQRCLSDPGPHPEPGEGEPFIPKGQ
As to the kind of experiment: Inhibition of the Na+/H+ exchanger of rabbit erythrocytes (amiloride-sensitive sodium influx, flame photometry). The format is cell-based, Kaninchen. The conditions noted are these: hyperosmolar salt-sucrose medium, pH 7,4, 37°C, read-out: IC50 Inhibition des Na ^+/H ^+ -Exchangers. The source says:
Inhibition des Na ^+/H ^+-Exchangers von Kaninchenerythrocyten Weiße Neuseeland-Kaninchen (Ivanovas) erhielten eine Standard-Diät mit […] für sechs Wochen, um den Na ^+ /H ^+-Austausch zu aktivieren und so den Na ^+-Influx in die Erythrocyten via Na ^+/H ^+-Austausch flammenphotometrisch bestimmen zu können. Das Blut wurde den Ohrarterien entnommen und durch 25 IE Kalium-Heparin ungerinnbar gemacht. Ein Teil jeder Probe wurde zur Doppelbestimmung des Hämatokrits durch Zentrifugieren benutzt. Aliquots von jeweils 100 µl dienten zur Messung des Na ^+-Ausgangsgehalts der Erythrocyten.
Um den Amilorid-sensitiven Natrium-Influx zu bestimmen, wurden 100 µl jeder Blutprobe in jeweils 5 ml eines hyperosmolaren Salz-Sucrose-Mediums (mmol/l: 140 NaCl, 3 KCl, 150 Sucrose, 0,1 Ouabain, 20 Tris-hydroxymethylaminomethan) bei pH 7,4 und 37°C inkubiert. Die Erythrocyten wurden danach dreimal mit eiskalter MgCl2-Ouabain-Lösung (mmol/l: 112 MgCl2, 0,1 Ouabain) gewaschen und in 2,0 ml destilliertem Wasser hämolysiert. Der intrazelluläre Natriumgehalt wurde flammenphotometrisch bestimmt.
Der Na ^+-Nettoinflux wurde aus der Differenz zwischen Natrium-Ausgangswerten und dem Natriumgehalt der Erythrocyten nach Inkubation errechnet. Der Amiloridhemmbare Natrium-Influx ergab sich aus der Differenz des Natriumgehalts der Erythrocyten nach Inkubation mit und ohne Amilorid 3 x 10^-4 mol/l. Auf diese Weise wurde auch bei den erfindungsgemäßen Verbindungen verfahren.
As for `NC(N)=NC(=O)c1ccc(-c2cccc(C(=O)N=C(N)N)c2)cc1` [Beispiel 1, 3-(4-Guanidinocarbonyl)phenyl-benzoylguanidin], the IC50 turned out to be 1500 nM. For the molecule `NC(N)=NC(=O)c1ccc(-c2ccccc2C(=O)N=C(N)N)cc1` [Beispiel 2, 2-(4-Guanidinocarbonyl)phenyl-benzoylguanidin], the IC50 stood at 5000 nM. The figure for `NC(N)=NC(=O)c1ccc(-c2ccc(C(=O)N=C(N)N)cc2)cc1` [Beispiel 4, Biphenyl-4,4'-dicarbonsäure-diguanidid] is 2000 nM; for `NC(N)=NC(=O)c1ccc(S(=O)(=O)NC(=O)Nc2cccc(C(=O)N=C(N)N)c2)cc1` [Beispiel 5, 4[3-(Guanidinocarbonyl)phenylaminocarbonylaminosulfonyl]-benzoylguanidin] it is 10000 nM. In the case of “4-(4-Guanidinocarbonyl)phenylsulfamoyl-benzoylguanidin [Beispiel 3]”, the IC50 stood at 1500 nM.
